Data published in ChEMBL document CHEMBL4699399, “Discovery of isoxazolyl-based inhibitors of Plasmodium falciparum cGMP-dependent protein kinase” (RSC Med Chem, 2020).

Key:
[1] = Inhibition of recombinant Plasmodium falciparum PKG using FAM-PKAtide as substrate preincubated for 15 mins followed by substrate addition and measured after 1 hr by IMAP fluorescence polarization assay
Plasmodium falciparum = experiment: Inhibition of recombinant Plasmodium falciparum PKG using FAM-PKAtide as substrate at 10 uM preincubated for 15 mins followed by substrate addition and measured after 1 hr by IMAP fluorescence polarization assay relative to control; settings: time 75.0 min
[2] = Inhibition of human PKG measured up to 10 uM

Row | SMILES | IC50 [1] | inhibition (Plasmodium falciparum) | inhibition (INH) [2]
1 | CCN(CC)Cc1onc(-c2cccc(Cl)c2)c1-c1ccnc(N[C@@H]2CCN(C(=O)c3c[nH]cn3)C2)n1 | 47 nM |  | 
2 | Cc1onc(-c2ccccc2)c1-c1ccnc(N[C@@H]2CCN(C(=O)c3cnccn3)C2)n1 | 2000 nM |  | 
3 | O=C(c1cnoc1)N1CC[C@@H](Nc2nccc(-c3c(-c4ccccc4)noc3CN3CCOCC3)n2)C1 | 1000 nM |  | 
4 | CCOC(=O)c1onc(-c2ccccc2)c1-c1ccnc(N[C@@H]2CCN(C(=O)c3cnoc3)C2)n1 |  | 23% | 
5 | CCN(CC)Cc1onc(-c2cccc(Cl)c2)c1-c1ccnc(N[C@@H]2CCN(C(=O)c3cnsc3)C2)n1 | 74 nM |  | 
6 | CCN(CC)Cc1onc(-c2cccc(Cl)c2)c1-c1ccnc(N[C@@H]2CCN(C(=O)c3cn[nH]c3)C2)n1 | 97 nM |  | 
7 | O=C(c1cnoc1)N1CC[C@H](Nc2nccc(-c3c(-c4ccccc4)noc3CO)n2)C1 |  | 60% | 
8 | CCN(CC)Cc1onc(-c2cccc(Cl)c2)c1-c1ccnc(N[C@@H]2CCN(C(=O)c3ccn(C)n3)C2)n1 | 10 nM |  | 
9 | Cc1onc(-c2ccccc2)c1-c1ccnc(N[C@@H]2CCN(C(=O)c3cccnc3)C2)n1 | 1000 nM |  | 
10 | CCN(CC)Cc1onc(-c2cccc(Cl)c2)c1-c1ccnc(N[C@@H]2CCN(C(=O)c3cnoc3)C2)n1 | 13 nM |  | 
11 | CCN(CC)Cc1onc(-c2cccc(Cl)c2)c1-c1ccnc(N2CCCC(C(=O)c3ccsn3)C2)n1 (racemic) |  | 75% | 
12 | CCN(CC)Cc1onc(-c2ccccc2)c1-c1ccnc(N[C@@H]2CCN(C(=O)c3cnoc3)C2)n1 | 850 nM |  | Not Active
13 | CCN(CC)Cc1onc(-c2cccc(Cl)c2)c1-c1ccnc(N[C@@H]2CCN(S(=O)(=O)c3cnn(C)c3)C2)n1 |  | 40% | 
14 | CCN(CC)Cc1onc(-c2cccc(Cl)c2)c1-c1ccnc(N2CCC(C(=O)c3ccsn3)CC2)n1 |  | 46% | 
15 | CCN(CC)Cc1onc(-c2cccc(Cl)c2)c1-c1ccnc(N[C@@H]2CCN(Cc3cnn(C)c3)C2)n1 |  | 5% | 
16 | O=C(c1cnoc1)N1CC[C@@H](Nc2nccc(-c3c(-c4ccccc4)noc3CN3CCCC3)n2)C1 | 1400 nM |  | 

Row | SMILES | IC50 [1] | inhibition (Plasmodium falciparum) | inhibition (INH) [2]
17 | CCN(CC)Cc1onc(-c2cccc(Cl)c2)c1-c1ccnc(N[C@@H]2CCN(C(=O)c3nc[nH]n3)C2)n1 | 620 nM |  | 
18 | CCN(CC)Cc1onc(-c2cccc(Cl)c2)c1-c1ccnc(N[C@@H]2CCN(Cc3ccn(C)n3)C2)n1 |  | 5% | 
19 | Cc1onc(-c2ccc(Cl)cc2)c1-c1ccnc(N[C@@H]2CCN(C(=O)c3cnoc3)C2)n1 | 2800 nM |  | 
20 | CCN(CC)Cc1onc(-c2cccc(Cl)c2)c1-c1ccnc(N[C@@H]2CCN(C(=O)c3ccsn3)C2)n1 | 15 nM |  | 
21 | CCN(CC)Cc1onc(-c2cccc(Cl)c2)c1-c1ccnc(N[C@@H]2CCN(C(=O)c3cc[nH]n3)C2)n1 | 120 nM |  | 
22 | CCN(CC)Cc1onc(-c2cccc(Cl)c2)c1-c1ccnc(N2CCCC2CC(=O)c2ccsn2)n1 (racemic) |  | 60% | 
23 | Cc1onc(-c2ccccc2)c1-c1ccnc(N[C@@H]2CCN(C(=O)c3cnoc3)C2)n1 | 750 nM |  | 
24 | CCN(CC)Cc1onc(-c2ccc(F)cc2)c1-c1ccnc(N[C@@H]2CCN(C(=O)c3cnoc3)C2)n1 | 660 nM |  | 
25 | CCN(CC)Cc1onc(-c2cccc(Cl)c2)c1-c1ccnc(N[C@@H]2CCN(C(=O)c3cnn(C)c3)C2)n1 | 38 nM |  | 
26 | CCN(CC)Cc1onc(-c2cccc(Cl)c2)c1-c1ccnc(N[C@@H]2CCN(C(=O)c3ccon3)C2)n1 | 25 nM |  | 
27 | Cc1onc(-c2cccc(Cl)c2)c1-c1ccnc(N[C@@H]2CCN(C(=O)c3cnoc3)C2)n1 | 210 nM |  | Not Active
28 | CCN(CC)Cc1onc(-c2ccccc2F)c1-c1ccnc(N[C@@H]2CCN(C(=O)c3cnoc3)C2)n1 | 900 nM |  | 
29 | CCN(CC)Cc1onc(-c2cccc(Cl)c2)c1-c1ccnc(N2CC(C(=O)c3ccsn3)C2)n1 | 2600 nM |  | 
30 | Cc1onc(-c2ccccc2Cl)c1-c1ccnc(N[C@@H]2CCN(C(=O)c3cnoc3)C2)n1 | 2100 nM |  | 
31 | CCN(CC)Cc1onc(-c2cccc(F)c2)c1-c1ccnc(N[C@@H]2CCN(C(=O)c3cnoc3)C2)n1 | 360 nM |  | 
32 | O=C(c1cnoc1)N1CC[C@@H](Nc2nccc(-c3c(-c4ccccc4)noc3CO)n2)C1 | 1000 nM |  | 
